The values that follow come from patent US12552811B2, “Immunosuppressant, and preparation method therefor and use thereof” (Abbisko Therapeutics Co., Ltd., priority 2020, dated 2026).

Some results are limits rather than exact numbers.

This assay in a line: Jurkat reporter gene cellular assay. The class given is cell-based. As to conditions: Homo sapiens; Jurkat/NF-κB-luc/PD1 + Raji-PD-L1 coculture, OKT3 1 μg/mL, 6 hrs, activation fold; read-out: Cell Activity EC50. Here is the method: The effect of compounds of the examples of the present invention and positive compounds on the interaction between PD-1 and PD-L1 expressed on cell surfaces, and the related influence on T cell functions, were determined by a Jurkat reporter gene cellular assay.
Briefly, the reporter gene plasmid of NF-κB-luc and the plasmid of human PD-1 were transfected into Jurkat cells to establish a stably transfected cell line capable of stably expressing both PD-1 and NF-κB-Luc reporter genes; the expression level of PD-1 on the cell surface was confirmed by flow cytometry; and the expression of the reporter gene was confirmed via the response of the reporter gene stimulated by OKT-3 and Raiji cells.
In addition, the plasmid of human PD-L1 was transfected into Raji cells to obtain a cell line capable of stably expressing PD-L1. Jurkat/NF-κB-luc/PD1 cells and Raji-PD-L1 cells were then cocultured and stimulated with OKT-3. On this basis, the compounds were added, and the enhancement of the signal pathway of T cell activation by the inhibitory effect of the compounds on the interaction between PD-1 and PD-L1 was evaluated by readings of reporter gene responses. The specific experimental process was as follows: • 1) 30 μL of compound or antibody solution was added to each well of a white 96-well plate (coming, 3610) at different diluted concentrations, and 10 μL of OKT3 (Biolegend, 317326) was then added (the final concentration of OKT3: 1 μg/mL); • 2) 20 μL of Raji-PD-L1 cell suspension was added to each well with 5*10^4 cells for each well, and was incubated in an incubator for 20 min: • 3) 20 μL of Jurkat/NF-κb-luc/PD-1 cell suspension was added to each well with 5*10^4 cells for each well, and well mixed, and 6 hrs later, Bright-glo (Promega, E2620) was applied and plates were read on Envision; • 4) The reading of each well treated with the compound was compared with the reading of each well treated with DMSO to obtain the activation fold of the compound; • 5) EC50 values of compounds and positive compounds of the examples of the present invention were determined by non-linear regression analysis of activation folds at different compound concentrations.
As to `Cn1c(C(=O)Nc2cccc(-c3cccc(NC(=O)c4cc5c(cn4)CN(C4CCC4)CC5)c3Cl)c2Cl)nc2c1CCN(CCC13CCC(C(=O)O)(CC1)C3)C2` [Example 5, 4-(2-(2-((2,2′-dichloro-3′-(7-cyclobutyl-5,6,7,8-tetrahydro-2,7-naphthyridine-3-carboxamido)-[1,1′-biphenyl]-3-yl)carbamoyl)-1-methyl-1,4,6,7-tetrahydro-5H-imidazo[4,5-c]pyridin-5-yl)ethyl)bicyclo [2.2.1]heptane-1-carboxylic acid], the EC50 was 108 nM. As to `C[C@@H](O)CN1CCc2cc(C(=O)Nc3cccc(-c4cccc(NC(=O)c5nc6c(n5C)CCN(CCC57CCC(C(=O)O)(CC5)C7)C6)c4Cl)c3Cl)ncc2C1` [Example 8, (R)-4-(2-(2-((2,2′-dichloro-3′-(7-(2-hydroxypropyl)-5,6,7,8-tetrahydro-2,7-naphthyridine-3-carboxamido)-[1,1′-biphenyl]-3-yl)carbamoyl)-1-methyl-1,4,6,7-tetrahydro-5H-imidazo[4,5-c]pyridin-5-yl)ethyl)bicyclo[2.2.1]heptane-1-carboxylic acid], the EC50 was 59.8 nM.

`Cn1c(C(=O)Nc2cccc(-c3cccc(NC(=O)c4cc5c(cn4)CN(CCCO)CC5)c3Cl)c2Cl)nc2c1CCN(CCC13CCC(C(=O)O)(CC1)C3)C2` [Example 9, 4-(2-(2-((2,2′-dichloro-3′-(7-(3-hydroxypropyl)-5,6,7,8-tetrahydro-2,7-naphthyridine-3-carboxamido)-[1,1′-biphenyl]-3-yl)carbamoyl)-1-methyl-1,4,6,7-tetrahydro-5H-imidazo[4,5-c]pyridin-5-yl)ethyl) bicyclo[2.2.1]heptane-1-carboxylic acid]: the EC50 is 177 nM. As for `Cn1c(C(=O)Nc2cccc(-c3cccc(NC(=O)c4cc5c(cn4)CN([C@H]4CC[C@@H](O)CC4)CC5)c3Cl)c2Cl)nc2c1CCN(CCC13CCC(C(=O)O)(CC1)C3)C2` [Example 12, 4-(2-(2-((2,2′-dichloro-3′-(7-((1S,4S)-4-hydroxycyclohexyl)-5,6,7,8-tetrahydro-2,7-naphthyridine-3-carboxamido)-[1,1′-biphenyl]-3-yl)carbamoyl)-1-methyl-1,4,6,7-tetrahydro-5H-imidazo[4,5-c]pyridin-5-yl)ethyl)bicyclo[2.2.1]heptane-1-carboxylic acid], the figure is 114 nM. For `Cn1c(C(=O)Nc2cccc(-c3cccc(NC(=O)c4cc5c(cn4)CN(CCC(C)(C)O)CC5)c3Cl)c2Cl)nc2c1CCN(CCC13CCC(C(=O)O)(CC1)C3)C2` [Example 13, 4-(2-(2-((2,2′-dichloro-3′-(7-(3-hydroxy-3-methylbutyl)-5,6,7,8-tetrahydro-2,7-naphthyridine-3-carboxamido)-[1,1′-biphenyl]-3-yl)carbamoyl)-1-methyl-1,4,6,7-tetrahydro-5H-imidazo[4,5-c]pyridin-5-yl)ethyl)bicyclo[2.2.1]heptane-1-carboxylic acid], the EC50 was determined as 78.9 nM. Next, `CN(C)C(=O)CCCCN1CCc2cc(C(=O)Nc3cccc(-c4cccc(NC(=O)c5nc6c(n5C)CCN(CCC57CCC(C(=O)O)(CC5)C7)C6)c4Cl)c3Cl)ncc2C1` [Example 16, 4-(2-(2-((2,2′-dichloro-3′-(7-(5-(dimethylamino)-5-oxopentyl)-5,6,7,8-tetrahydro-2,7-naphthyridine-3-carboxamido)-[1,1′-biphenyl]-3-yl)carbamoyl)-1-methyl-1,4,6,7-tetrahydro-5H-imidazo[4,5-c]pyridin-5-yl)ethyl)bicyclo[2.2.1]heptane-1-carboxylic acid]: 83.5 nM; `CC(C)N1CCc2cc(C(=O)Nc3cccc(-c4cccc(NC(=O)c5nc6c(n5C)CCN(CCC57CCC(C(=O)O)(CC5)C7)C6)c4Cl)c3Cl)ncc2C1C` (stereo not shown) [Example 18, 4-(2-(2-((2,2′-dichloro-3′-(7-isopropyl-8-methyl-5,6,7,8-tetrahydro-2,7-naphthyridine-3-carboxamido)-[1,1′-biphenyl]-3-yl)carbamoyl)-1-methyl-1,4,6,7-tetrahydro-5H-imidazo[4,5-c]pyridin-5-yl)ethyl) bicyclo[2.2.1]heptane-1-carboxylic acid]: 90.7 nM. As for `CC(C)N1CCc2cc(C(=O)Nc3cccc(-c4cccc(NC(=O)c5nc6c(n5C)CCN(CC57CCC(C(=O)O)(CC5)C7)C6)c4Cl)c3Cl)ncc2C1` [Example 19, 4-((2-((2,2′-dichloro-3′-(7-isopropyl-5,6,7,8-tetrahydro-2,7-naphthyridine-3-carboxamido)-[1,1′-biphenyl]-3-yl)carbamoyl)-1-methyl-1,4,6,7-tetrahydro-5H-imidazo[4,5-c]pyridin-5-yl)methyl)bicyclo[2.2.1] heptane-1-carboxylic acid], the figure is 58.8 nM; as for `CC(C)N1CCc2cc(C(=O)Nc3cccc(-c4cccc(NC(=O)c5nc6c(n5C)CCN(CC[C@H]5CC[C@H](C(=O)O)CC5)C6)c4Cl)c3Cl)ncc2C1` [Example 23, (1R,4R)-4-(2-(2-((2,2′-dichloro-3′-(7-isopropyl-5,6,7,8-tetrahydro-2,7-naphthyridine-3-carboxamido)-[1,1′-biphenyl]-3-yl)carbamoyl)-1-methyl-1,4,6,7-tetrahydro-5H-imidazo[4,5-c]pyridin-5-yl)ethyl) cyclohexane-1-carboxylic acid], 60.7 nM; as for `Cn1c(C(=O)Nc2cccc(-c3cccc(NC(=O)c4cc5c(cn4)CN([C@H]4CCC[C@@H]4O)CC5)c3Cl)c2Cl)nc2c1CCN(CCC13CCC(C(=O)O)(CC1)C3)C2` [Example 61, 4-(2-(2-((2,2′-dichloro-3′-(7-((1S,2S)-2-hydroxycyclopentyl)-5,6,7,8-tetrahydro-2,7-naphthyridine-3-carboxamido)-[1,1′-biphenyl]-3-yl)carbamoyl)-1-methyl-1,4,6,7-tetrahydro-5H-imidazo[4,5-c]pyridin-5-yl)ethyl)bicyclo[2.2.1]heptane-1-carboxylic acid], 83.2 nM. Consider `Cn1c(C(=O)Nc2cccc(-c3cccc(NC(=O)c4cc5c(cn4)CN(CC4(O)CC4)CC5)c3Cl)c2Cl)nc2c1CCN(CCC13CCC(C(=O)O)(CC1)C3)C2` [Example 62, 4-(2-(2-((2,2′-dichloro-3′-(7-((1-hydroxycyclopropyl)methyl)-5,6,7,8-tetrahydro-2,7-naphthyridine-3-carboxamido)-[1,1′-biphenyl]-3-yl)carbamoyl)-1-methyl-1,4,6,7-tetrahydro-5H-imidazo[4,5-c]pyridin-5-yl)ethyl)bicyclo[2.2.1]heptane-1-carboxylic acid], for which the EC50 amounted to 76.3 nM. Take `Cn1c(C(=O)Nc2cccc(-c3cccc(NC(=O)c4cc5c(cn4)CN([C@H]4CC[C@H](O)CC4)CC5)c3Cl)c2Cl)nc2c1CCN(CCC13CCC(C(=O)O)(CC1)C3)C2` [Example 63, 4-(2-(2-((2,2′-dichloro-3′-(7-((1R,4R)-4-hydroxycyclohexyl)-5,6,7,8-tetrahydro-2,7-naphthyridine-3-carboxamido)-[1,1′-biphenyl]-3-yl)carbamoyl)-1-methyl-1,4,6,7-tetrahydro-5H-imidazo[4,5-c]pyridin-5-yl)ethyl)bicyclo[2.2.1]heptane-1-carboxylic acid]: the concentration giving a half-maximal response (EC50) came to 104 nM. As for `Cn1c(C(=O)Nc2cccc(-c3cccc(NC(=O)c4cc5c(cn4)CN(C4CCCC4)CC5)c3Cl)c2Cl)nc2c1CCN(CCC13CCC(C(=O)O)(CC1)C3)C2` [Example 64, 4-(2-(2-((2,2′-dichloro-3′-(7-cyclopentyl-5,6,7,8-tetrahydro-2,7-naphthyridine-3-carboxamido)-[1,1′-biphenyl]-3-yl)carbamoyl)-1-methyl-1,4,6,7-tetrahydro-5H-imidazo[4,5-c]pyridin-5-yl)ethyl)bicyclo [2.2.1]heptane-1-carboxylic acid], the figure is 155 nM. Next, `Cn1c(C(=O)Nc2cccc(-c3cccc(NC(=O)c4cc5c(cn4)CN(C4CCC(C)(C(=O)O)CC4)CC5)c3Cl)c2Cl)nc2c1CCN(CCC13CCC(C(=O)O)(CC1)C3)C2` (stereo not shown) [Example 65, 4-(2-(2-((3′-(7-(4-carboxy-4-methylcyclohexyl)-5,6,7,8-tetrahydro-2,7-naphthyridine-3-carboxamido)-2,2′-dichloro-[1,1′-biphenyl]-3-yl)carbamoyl)-1-methyl-1,4,6,7-tetrahydro-5H-imidazo[4,5-c]pyridin-5-yl)ethyl)bicyclo[2.2.1]heptane-1-carboxylic acid]: 122 nM. As for `CC(C)N1CCc2cc(C(=O)Nc3cccc(-c4cccc(NC(=O)c5cc6c(cn5)CN(C(C)C)CC6)c4Cl)c3Cl)ncc2C1` [Example 66], the figure is greater than 10000 nM. For `CC(C)N1CCc2cc(C(=O)Nc3cccc(-c4cccc(NC(=O)c5cc6c(cn5)CN(CCC57CCC(C(=O)O)(CC5)C7)CC6)c4Cl)c3Cl)ncc2C1` [Example 67, 4-(2-(6-((2,2′-dichloro-3′-(7-isopropyl-5,6,7,8-tetrahydro-2,7-naphthyridine-3-carboxamido)-[1,1′-biphenyl]-3-yl)carbamoyl)-3,4-dihydro-2,7-naphthyridin-2(1H)-yl)ethyl)bicycio[2.2.1]heptane-1-carboxylic acid], the EC50 worked out at 1660 nM.
